Experimental data published in US7482124B2, “Method of identifying a PPARgamma-agonist compound having a decreased likelihood of inducing dose-dependent peripheral edema” (Bristol-Myers Squibb Company, priority 2005, dated 2009).
Several values for one entry are separate records, joined by “and”; a condition that tells them apart may be missing. Equal entries are not always repeated.

Assays:
diabetics = settings: literature (Leff and Reed 2002; Nesto et al. 2003); cited from earlier work
[1] = test system: human renin gene expression in CALU-6 cells; experiment: Renin gene expression in CALU-6 cells, quantitative RT-PCR dose-titration; type: cell-based
Excerpt: (§1) Cell line maintenance: CALU-6 cells and growth media were obtained from ATCC® (Manassas, Va.). CALU-6 cells were recovered and expanded in complete growth media (Minimal Essential Media+Earle's Balanced Salt Solution, 1% penicillin/streptomycin, 10% Fetal Bovine Serum). Antibiotics and FBS were purchased from Invitrogen.
(§2) Compounds: Compound A, Compound B, Compound D, Compound C, Compound G, Compound F, Compound H, Compound I, Compound J and Compound K were synthesized at Bristol-Myers Squibb Co. Compound E was purified by reverse phase high-performance liquid chromatography from commercial pharmaceutical preparations. Compounds A, B, F, and G are dual PPAR alpha and gamma agonists; while compounds C, D, and E are single PPAR gamma agonists. Fenofibrate and DMSO were purchased from Sigma. […]
(§3) Quantitative RT-PCR experiments: CALU-6 cells were seeded on day 0 in at 5×10^5 cells/well, in 6-well tissue culture plates. […] RNA quantities were determined spectrophotometrically using a SPECTRAMAX® 384 spectrophotometer (Molecular Devices). […] All data were further analyzed using Microsoft Excel. Fold-change in gene expression upon treatment with compound was expressed as […] ΔCt, where ΔΔCt=(Ctrenin, endothelin-1−CtGAPDH)DMSO−(Ctrenin, endothelin-1−CtGAPDH)treatment. […] Dose-titration experiments were further analyzed using GraphPad Prism Software (GraphPad Inc) to derive EC50 values. […]

[2] = test system: human endothelin-1 gene expression in CALU-6 cells; experiment: Endothelin-1 gene expression in CALU-6 cells, quantitative RT-PCR dose-titration; type: cell-based
Excerpt: as §1, §2, §3

patients = experiment: Dose-dependent peripheral edema in Phase II clinical trials CV168-006 and CV168-008; type: in vivo, human
Description: Genomic DNA samples from patients enrolled in two Bristol-Myers Squibb Company Phase II clinical trials CV168-006 and CV168-008 trials were genotyped for 50 SNPs identified in the human renin gene (see Example 1) and evaluated for association with edema.
498 subjects enrolled in the CV168-006 trial and 232 subjects from the CV168-008 trial were analyzed in this study. All analyses were based on data collected up to 24 weeks, which was the duration of the short-term phase of the trials. DNA was extracted from frozen blood by a third-party (Genaissance Inc, North Carolina) using a salting-out method (Gentra Systems). All subjects gave written informed consent.
The association between peripheral edema and the renin single nucleotide polymorphisms of the present invention were investigated by applying statistical analysis to the results of the genotyping assays described elsewhere herein. The central hypothesis of this analysis is that a predisposition to develop dose-dependent peripheral edema may be conferred by specific genomic factors. The analysis attempted to identify one or more of these factors in genomic DNA samples from index cases and matched control subjects who were exposed to Compound A in two Bristol-Myers Squibb (BMS) clinical studies (see Example 2).
Sample. Investigators in the BMS clinical trials diagnosed dose-dependent peripheral edema in some subjects.
Table A provides a distribution of the frequency of dose-dependent peripheral edema by treatment arm.

[3] = test system: human endothelin-1 gene expression in CALU-6 cells; experiment: Human endothelin-1 expression profile in CALU-6 cells by quantitative RT-PCR (Example 15); type: cell-based
Description: On account of the involvement of ET-1 in vascular tone maintenance, along with its involvement in numerous cardiovascular disease processes, the possibility that PPAR agonists may contribute to an agonist-induced edema mechanism of action through the modulation of endoethelin-1, was investigated using quantitative RT-PCR. Briefly, gene expression studies were performed using a cell line that was previously shown to express endogenous endothelin mRNA, CALU-6 (Lang et al., 1995).
The human lung carcinoma cell line, CALU-6, was obtained from ATCC®. […]
(§4) Compounds A, B, C, D, and F were synthesized at Bristol-Myers Squibb Co. Compound E was purified by reverse phase high-performance liquid chromatography from commercial pharmaceutical preparations. […] The final concentration of each PPAR-agonist used in the induction studies was 5×EC50 as determined from pre-adipocyte differentiation studies (data not shown). […]
(§5) CALU-6 cells were seeded on day 0 in replicates of six (or twelve for DMSO control), at 5×10^5 cells/well, in 6-well tissue culture plates. […] RNA quantities were determined spectrophotometrically using a SPECTRAMAX® 384 spectrophotometer (Molecular Devices). RNA quality was assessed using an Agilent 2100 Bioanalyzer (Agilent Technologies) following the manufacturer's recommendations. […]

[4] = test system: human renin gene expression in CALU-6 cells; experiment: Human renin expression in CALU-6 cells by microarray analysis (Example 8); type: cell-based; settings: CALU-6, 5×EC50, 24 hr, FIGS. 12A-B
Description: As an independent measurement of the renin induction by PPAR agonists observed using RT-PCR (see Example 7 and FIG. 11), four of the experimental treatment groups described under the “Induction Experiments” section in Example 7, were analyzed on AFFYMETRIX® genechips, including; DMSO, Compound A, Compound B, and Compound E. Triplicate samples from each treatment group were analyzed.
All cDNA and cRNA synthesis as well as all hybridizations and subsequent washing steps were performed following the […]® Expression Analysis Technical Manual (Affymetrix). AFFYMETRIX® HG-U133A gene chips were used for all expression profiling studies in this invention.
Micro Array Suite (MAS) 5.0 (Affymetrix) software was used to pre-process all micro-array data. Each treated sample (including DMSO control) was first scaled to an average intensity value of 1500. The data was further analyzed in Excel '97 (Microsoft).
All treated samples were compiled into one Excel spreadsheet such that each compound treated sample (and DMSO control) was aligned for all 22283 genes on the HG-U133A […]®. Gene fold-change values were calculated by dividing the mean signal intensity of each treatment group by the mean signal intensity of the DMSO control. Pair-wise 2-tailed Student's t-tests were performed for each treatment group.

[5] = test system: human renin gene expression in CALU-6 cells; experiment: Human renin expression profile in CALU-6 cells by quantitative RT-PCR (Example 7); type: cell-based; settings: qRT-PCR, CALU-6, 5×EC50, 24 hr, FIG. 11
Description: Since RAAS plays a fundamental role in fluid volume homeostasis, the possibility that PPAR agonists may contribute to agonist-induced edema mechanism of action through the modulation of other components of this system, specifically renin, was investigated using quantitative RT-PCR. Briefly, gene expression studies were performed using a cell line that was previously shown to express endogenous renin mRNA, CALU-6 (Lang et al., 1995).
The human lung carcinoma cell line, CALU-6, was chosen on account of it being previously shown to endogenously express renin. […]
as §4, §5

[6] = Dose E (133 subjects), 40 fold Dose A

In the case of `COc1ccc(OC(=O)N(CC(=O)O)Cc2ccc(OCCc3nc(-c4ccccc4)oc3C)cc2)cc1` [COM. A, N-[(4-methoxyphenoxy)carbonyl]-N-[[4-[2-(5-methyl-2-phenyl-4-oxazolyl)ethoxy]phenyl]methyl] glycine], the “edema in clinical use” value (diabetics) is given as “acceptable incidence and severity of edema”, the “increase of renin mRNA, factor” value ([1]; CALU-6, qRT-PCR, FIG. 21A) is given as “fifteen to twenty” and the EC50 ([1]; Homo sapiens, mean ± SEM, renin up-regulation, dose-titration experiments (n = 3 to n = 18), CALU-6, 24 hr) is given as 96.3 ± 32 nM. The “down-regulation of endothelin-1 gene expression, factor” value ([2]; CALU-6, qRT-PCR, FIG. 21A) was “four to five”, the IC50 ([2]; Homo sapiens, mean ± SEM, endothelin-1 down-regulation, dose-titration experiments (n = 3 to n = 18), CALU-6, 24 hr) was 18 ± 6.07 nM and the “Number of edema cases” value (patients; Dose A (79 subjects)) was 16. The “edema cases (%)” value (patients; Dose A (79 subjects)) was 20%, the “Number of edema cases” value (patients; Dose B (90 subjects)) was 14 and the “edema cases (%)” value (patients; Dose B (90 subjects)) was 16%. For the same compound, the “Number of edema cases” value (patients; Dose C (125 subjects)) was 13, the “edema cases (%)” value (patients; Dose C (125 subjects)) was 10% and the “Number of edema cases” value (patients; Dose D (129 subjects)) was 27. The “edema cases (%)” value (patients; Dose D (129 subjects)) was 21%, the “Number of edema cases” value (patients; [6]) was 54 and the “edema cases (%)” value (patients; [6]) was 40% and 41%. The “frequency of edema with dose” value (patients; dose increased from 0.5 mg to 20 mg) was “frequency of edema increased”, the “difference in level of endothelin-1 repression compared to other PPAR agonists studied” value ([3]; CALU-6, 5×EC50) was “no significant difference” and the “human endothelin-1 expression, fold-change over DMSO treated cells” value ([3]; qRT-PCR, CALU-6, 5×EC50, 24 hr, FIGS. 16 and 17) was “significantly decrease”. The “human renin expression, fold-change over DMSO treated cells” value [4] was “significantly increased” and the “human renin expression, fold-change over DMSO treated cells” value [5] was “significantly elevate”.
